{"source": "ChEMBL document CHEMBL4507324", "about": "(2021)", "conditions_in_all_cases": "Compound concentration 100.0 nM", "key": {"[1]": {"biological_target": "Mitogen-activated protein kinase kinase kinase 10 (Homo sapiens) (UniProt Q02779)"}, "[2]": {"biological_target": "Serine/threonine-protein kinase Nek7 (Homo sapiens) (UniProt Q8TDX7)"}, "[3]": {"biological_target": "Mitogen-activated protein kinase kinase kinase kinase 2 (Homo sapiens) (UniProt Q12851)"}, "[4]": {"biological_target": "Dual specificity mitogen-activated protein kinase kinase 5 (Homo sapiens) (UniProt Q13163)"}, "[5]": {"tested_on": "Tyrosine-protein kinase ABL1 (Homo sapiens), P00519 [F317I]", "sequence (P00519 whole entry F317I)": "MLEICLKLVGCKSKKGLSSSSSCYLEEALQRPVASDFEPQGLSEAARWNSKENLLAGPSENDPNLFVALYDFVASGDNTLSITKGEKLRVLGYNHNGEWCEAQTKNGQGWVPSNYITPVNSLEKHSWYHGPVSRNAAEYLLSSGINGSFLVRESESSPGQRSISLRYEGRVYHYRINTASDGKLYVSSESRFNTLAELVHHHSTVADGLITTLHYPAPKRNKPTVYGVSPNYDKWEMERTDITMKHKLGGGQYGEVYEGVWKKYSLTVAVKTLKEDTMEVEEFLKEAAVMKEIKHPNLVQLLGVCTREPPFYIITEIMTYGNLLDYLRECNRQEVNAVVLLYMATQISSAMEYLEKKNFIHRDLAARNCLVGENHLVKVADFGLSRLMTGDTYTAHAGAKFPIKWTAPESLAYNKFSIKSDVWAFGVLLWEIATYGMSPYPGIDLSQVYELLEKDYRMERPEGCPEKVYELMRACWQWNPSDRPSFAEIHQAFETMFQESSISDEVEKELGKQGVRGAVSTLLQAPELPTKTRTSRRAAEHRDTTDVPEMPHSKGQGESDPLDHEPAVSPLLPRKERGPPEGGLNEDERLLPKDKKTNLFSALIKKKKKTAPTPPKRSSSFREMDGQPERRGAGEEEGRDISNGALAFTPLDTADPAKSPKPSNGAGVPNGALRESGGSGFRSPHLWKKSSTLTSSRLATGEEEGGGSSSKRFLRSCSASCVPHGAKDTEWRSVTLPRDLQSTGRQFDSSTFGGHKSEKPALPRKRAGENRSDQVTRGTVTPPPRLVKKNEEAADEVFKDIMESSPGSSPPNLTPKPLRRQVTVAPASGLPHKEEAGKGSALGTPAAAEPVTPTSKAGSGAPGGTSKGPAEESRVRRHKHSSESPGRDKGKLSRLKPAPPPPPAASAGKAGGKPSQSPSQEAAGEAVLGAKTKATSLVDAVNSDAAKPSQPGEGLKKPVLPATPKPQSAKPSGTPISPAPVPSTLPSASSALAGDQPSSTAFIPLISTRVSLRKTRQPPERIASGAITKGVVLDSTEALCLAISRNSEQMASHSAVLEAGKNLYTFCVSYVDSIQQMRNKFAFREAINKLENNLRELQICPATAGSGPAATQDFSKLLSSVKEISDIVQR"}, "[6]": {"biological_target": "Phosphatidylinositol 4-phosphate 5-kinase type-1 alpha (Homo sapiens) (UniProt Q99755)"}, "[7]": {"biological_target": "NUAK family SNF1-like kinase 2 (Homo sapiens) (UniProt Q9H093)"}, "[8]": {"biological_target": "Activin receptor type-1-like (Homo sapiens) (UniProt P37023)", "sequence (P37023 whole entry)": "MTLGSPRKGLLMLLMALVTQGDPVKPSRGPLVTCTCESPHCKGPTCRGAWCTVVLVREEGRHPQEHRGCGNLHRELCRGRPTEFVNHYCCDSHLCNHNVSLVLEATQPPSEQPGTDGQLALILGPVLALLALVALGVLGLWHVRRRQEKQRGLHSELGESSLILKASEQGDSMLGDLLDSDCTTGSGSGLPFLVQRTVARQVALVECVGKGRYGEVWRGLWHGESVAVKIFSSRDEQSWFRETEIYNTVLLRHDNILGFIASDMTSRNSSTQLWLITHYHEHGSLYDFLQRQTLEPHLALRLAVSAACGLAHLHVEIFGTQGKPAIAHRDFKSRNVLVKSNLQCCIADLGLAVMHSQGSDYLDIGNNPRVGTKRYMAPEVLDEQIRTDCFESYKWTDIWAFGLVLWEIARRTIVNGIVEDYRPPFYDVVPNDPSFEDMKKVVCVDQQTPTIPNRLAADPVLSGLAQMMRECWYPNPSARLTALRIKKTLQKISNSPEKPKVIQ"}, "[9]": {"biological_target": "Protein-tyrosine kinase 2-beta (Homo sapiens) (UniProt Q14289)"}, "[10]": {"biological_target": "Rhodopsin kinase GRK1 (Homo sapiens) (UniProt Q15835)", "sequence (Q15835 whole entry)": "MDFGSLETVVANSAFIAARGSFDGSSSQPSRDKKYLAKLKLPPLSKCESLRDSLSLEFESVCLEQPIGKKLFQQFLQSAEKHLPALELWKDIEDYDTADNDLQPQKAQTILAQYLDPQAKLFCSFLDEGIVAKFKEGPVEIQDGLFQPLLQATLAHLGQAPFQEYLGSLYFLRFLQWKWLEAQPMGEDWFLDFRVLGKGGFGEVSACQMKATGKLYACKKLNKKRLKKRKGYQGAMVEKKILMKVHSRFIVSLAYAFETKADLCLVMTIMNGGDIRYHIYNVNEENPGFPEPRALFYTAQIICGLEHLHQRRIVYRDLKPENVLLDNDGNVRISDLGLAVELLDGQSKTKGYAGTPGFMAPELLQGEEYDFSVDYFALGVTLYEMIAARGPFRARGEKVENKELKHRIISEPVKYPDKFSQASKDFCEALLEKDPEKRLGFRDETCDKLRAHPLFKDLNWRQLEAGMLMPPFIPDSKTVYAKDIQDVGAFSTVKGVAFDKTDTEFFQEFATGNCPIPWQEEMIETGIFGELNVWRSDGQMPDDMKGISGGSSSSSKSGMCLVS"}, "[11]": {"biological_target": "MAP/microtubule affinity-regulating kinase 3 (Homo sapiens) (UniProt P27448)"}, "[12]": {"biological_target": "LIM domain kinase 1 (Homo sapiens) (UniProt P53667)"}, "[13]": {"biological_target": "Cyclin-dependent kinase 4 (Homo sapiens) (UniProt P11802)"}, "[14]": {"biological_target": "Serine/threonine-protein kinase B-raf (Homo sapiens, UniProt P15056)", "sequence (P15056 whole entry)": "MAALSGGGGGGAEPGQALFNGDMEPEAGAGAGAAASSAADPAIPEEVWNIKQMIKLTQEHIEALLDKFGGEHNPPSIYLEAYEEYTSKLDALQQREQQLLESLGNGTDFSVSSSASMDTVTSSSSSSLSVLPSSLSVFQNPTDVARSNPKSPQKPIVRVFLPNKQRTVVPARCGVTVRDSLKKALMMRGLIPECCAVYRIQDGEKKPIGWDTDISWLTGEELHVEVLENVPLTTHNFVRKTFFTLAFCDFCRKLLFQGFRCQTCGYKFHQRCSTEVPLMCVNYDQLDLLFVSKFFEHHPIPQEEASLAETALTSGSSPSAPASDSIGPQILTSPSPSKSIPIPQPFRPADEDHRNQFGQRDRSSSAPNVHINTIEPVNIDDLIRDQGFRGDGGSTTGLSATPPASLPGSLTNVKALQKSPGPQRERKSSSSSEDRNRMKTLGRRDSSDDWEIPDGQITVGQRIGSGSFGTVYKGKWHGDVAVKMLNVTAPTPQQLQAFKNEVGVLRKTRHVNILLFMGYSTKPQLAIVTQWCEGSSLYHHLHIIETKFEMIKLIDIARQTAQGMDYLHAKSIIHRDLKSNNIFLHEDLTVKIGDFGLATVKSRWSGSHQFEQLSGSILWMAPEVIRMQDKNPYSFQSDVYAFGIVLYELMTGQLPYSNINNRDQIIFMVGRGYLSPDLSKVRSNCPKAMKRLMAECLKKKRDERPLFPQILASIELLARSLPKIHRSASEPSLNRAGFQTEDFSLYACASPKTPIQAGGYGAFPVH"}, "[15]": {"tested_on": "Phosphatidylinositol 4,5-bisphosphate 3-kinase catalytic subunit alpha isoform (Homo sapiens), P42336 [M1043I]"}, "[16]": {"biological_target": "Serine/threonine-protein kinase MARK2 (Homo sapiens) (UniProt Q7KZI7)"}, "[17]": {"biological_target": "Calcium/calmodulin-dependent protein kinase type II subunit alpha (Homo sapiens) (UniProt Q9UQM7)"}, "[18]": {"biological_target": "Serine/threonine-protein kinase D2 (Homo sapiens) (UniProt Q9BZL6)"}, "[19]": {"biological_target": "Phosphorylase b kinase gamma catalytic chain, skeletal muscle/heart isoform (Homo sapiens) (UniProt Q16816)"}, "[20]": {"biological_target": "ALK tyrosine kinase receptor (Homo sapiens) (UniProt Q9UM73)"}, "[21]": {"biological_target": "Casein kinase I isoform gamma-2 (Homo sapiens) (UniProt P78368)"}, "[22]": {"biological_target": "MAP kinase-interacting serine/threonine-protein kinase 2 (Homo sapiens) (UniProt Q9HBH9)"}, "[23]": {"biological_target": "Casein kinase II subunit alpha (Homo sapiens) (UniProt P68400)", "sequence (P68400 whole entry, looked up)": "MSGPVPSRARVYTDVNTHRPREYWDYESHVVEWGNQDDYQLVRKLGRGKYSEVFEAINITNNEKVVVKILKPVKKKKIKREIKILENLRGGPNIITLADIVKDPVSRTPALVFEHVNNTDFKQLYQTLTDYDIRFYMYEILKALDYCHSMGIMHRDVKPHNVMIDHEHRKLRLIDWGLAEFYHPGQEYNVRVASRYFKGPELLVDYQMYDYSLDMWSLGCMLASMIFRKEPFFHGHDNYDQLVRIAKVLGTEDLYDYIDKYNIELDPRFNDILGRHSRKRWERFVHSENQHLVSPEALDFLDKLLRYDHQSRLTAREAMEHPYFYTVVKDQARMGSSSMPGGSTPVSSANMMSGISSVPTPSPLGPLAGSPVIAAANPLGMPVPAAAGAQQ"}, "[24]": {"biological_target": "Serine/threonine-protein kinase pim-2 (Homo sapiens) (UniProt Q9P1W9)", "sequence (Q9P1W9 whole entry, looked up)": "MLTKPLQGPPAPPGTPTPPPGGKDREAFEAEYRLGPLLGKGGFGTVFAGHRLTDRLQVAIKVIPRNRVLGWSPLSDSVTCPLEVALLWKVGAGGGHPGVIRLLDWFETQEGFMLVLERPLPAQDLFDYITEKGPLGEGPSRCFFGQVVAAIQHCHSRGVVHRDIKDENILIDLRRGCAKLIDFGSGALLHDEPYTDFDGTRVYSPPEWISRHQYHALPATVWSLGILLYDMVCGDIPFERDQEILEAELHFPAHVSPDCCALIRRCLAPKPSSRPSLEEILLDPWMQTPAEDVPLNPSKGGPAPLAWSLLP"}, "[25]": {"tested_on": "Epidermal growth factor receptor (Homo sapiens), P00533 [UNDEFINED MUTATION]"}, "[26]": {"tested_on": "Receptor-type tyrosine-protein kinase FLT3 (Homo sapiens), P36888 [D835V]"}, "[27]": {"biological_target": "Serine/threonine-protein kinase Chk1 (Homo sapiens) (UniProt O14757)"}, "[28]": {"biological_target": "Tyrosine-protein kinase JAK2 (Homo sapiens) (UniProt O60674)", "sequence (O60674 whole entry)": "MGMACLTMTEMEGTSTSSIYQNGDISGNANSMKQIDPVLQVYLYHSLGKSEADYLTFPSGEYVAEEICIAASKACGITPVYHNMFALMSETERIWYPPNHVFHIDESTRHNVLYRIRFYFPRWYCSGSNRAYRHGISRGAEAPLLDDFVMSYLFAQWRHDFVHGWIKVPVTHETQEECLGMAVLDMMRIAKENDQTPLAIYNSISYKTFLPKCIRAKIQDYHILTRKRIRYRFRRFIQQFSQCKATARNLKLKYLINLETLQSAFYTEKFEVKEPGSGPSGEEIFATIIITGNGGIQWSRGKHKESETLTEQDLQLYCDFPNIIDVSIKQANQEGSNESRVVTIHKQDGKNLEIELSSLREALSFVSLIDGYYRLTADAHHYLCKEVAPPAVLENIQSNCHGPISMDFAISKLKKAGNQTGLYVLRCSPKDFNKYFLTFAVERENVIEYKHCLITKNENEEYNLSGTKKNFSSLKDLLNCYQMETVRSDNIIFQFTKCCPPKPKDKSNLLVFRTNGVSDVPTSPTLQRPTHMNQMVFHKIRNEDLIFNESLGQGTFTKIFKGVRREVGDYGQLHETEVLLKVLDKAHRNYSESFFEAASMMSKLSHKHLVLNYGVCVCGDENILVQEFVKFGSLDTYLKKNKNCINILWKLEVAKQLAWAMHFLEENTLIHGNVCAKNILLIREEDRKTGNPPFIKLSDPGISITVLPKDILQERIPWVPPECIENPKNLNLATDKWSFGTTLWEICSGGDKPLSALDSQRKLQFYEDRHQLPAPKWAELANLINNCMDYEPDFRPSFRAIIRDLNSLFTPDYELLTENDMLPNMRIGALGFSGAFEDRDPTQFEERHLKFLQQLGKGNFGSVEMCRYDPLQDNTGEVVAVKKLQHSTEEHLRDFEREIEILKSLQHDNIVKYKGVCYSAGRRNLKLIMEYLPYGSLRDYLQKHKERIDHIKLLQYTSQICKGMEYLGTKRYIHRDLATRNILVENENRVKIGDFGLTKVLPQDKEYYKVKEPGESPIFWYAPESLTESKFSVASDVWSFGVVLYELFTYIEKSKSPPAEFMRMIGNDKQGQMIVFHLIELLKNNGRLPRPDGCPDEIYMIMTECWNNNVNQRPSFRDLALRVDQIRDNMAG"}, "[29]": {"biological_target": "Receptor tyrosine-protein kinase erbB-4 (Homo sapiens) (UniProt Q15303)"}, "[30]": {"biological_target": "Ephrin type-A receptor 2 (Homo sapiens) (UniProt P29317)"}, "[31]": {"tested_on": "Phosphatidylinositol 4,5-bisphosphate 3-kinase catalytic subunit alpha isoform (Homo sapiens), P42336 [I800L]"}, "[32]": {"biological_target": "Epidermal growth factor receptor (Homo sapiens) (UniProt P00533)"}, "[33]": {"biological_target": "Casein kinase I isoform gamma-3 (Homo sapiens) (UniProt Q9Y6M4)"}, "[34]": {"tested_on": "Tyrosine-protein kinase ABL1 (Homo sapiens), P00519 [F317L]", "sequence (P00519 whole entry F317L)": "as the sequence (P00519 whole entry F317I) above, with I317L counted along it"}, "[35]": {"biological_target": "Aurora kinase B (Homo sapiens) (UniProt Q96GD4)"}, "[36]": {"biological_target": "Phosphatidylinositol 4,5-bisphosphate 3-kinase catalytic subunit beta isoform (Homo sapiens) (UniProt P42338)"}, "[37]": {"biological_target": "Calcium/calmodulin-dependent protein kinase type 1B (Homo sapiens) (UniProt Q6P2M8)"}, "[38]": {"biological_target": "Ribosomal protein S6 kinase alpha-4 (Homo sapiens) (UniProt O75676)"}, "[39]": {"biological_target": "Leukocyte tyrosine kinase receptor (Homo sapiens) (UniProt P29376)"}, "[40]": {"tested_on": "Mast/stem cell growth factor receptor Kit (Homo sapiens), P10721 [V559D,V654A]"}, "[41]": {"biological_target": "Mitogen-activated protein kinase 7 (Homo sapiens) (UniProt Q13164)"}, "[42]": {"biological_target": "Receptor-interacting serine/threonine-protein kinase 2 (Homo sapiens) (UniProt O43353)"}, "[43]": {"biological_target": "Serine/threonine-protein kinase mTOR (Homo sapiens) (UniProt P42345)"}, "[44]": {"biological_target": "Ribosomal protein S6 kinase alpha-1 (Homo sapiens) (UniProt Q15418)"}, "[45]": {"tested_on": "Mast/stem cell growth factor receptor Kit (Homo sapiens), P10721 [V559D,T670I]"}}}
{"smiles": "CS(=O)(=O)N1CCCC(NC(=O)[C@H](CCC2CCCCC2)NC(=O)c2ccc(CNc3ncnc4c3nnn4-c3ccccc3)cc2)C1", "note": "(stereo not given in full) [SR-301]", "values": [{"measurement": "residual activity", "setting": "[1]", "value": 73, "unit": "%"}, {"measurement": "residual activity", "setting": "[2]", "value": 88, "unit": "%"}, {"measurement": "residual activity", "setting": "[3]", "value": 100, "unit": "%"}, {"measurement": "residual activity", "setting": "[4]", "value": 100, "unit": "%"}, {"measurement": "residual activity", "setting": "[5]", "value": 95, "unit": "%"}, {"measurement": "residual activity", "setting": "[6]", "value": 100, "unit": "%"}, {"measurement": "residual activity", "setting": "[7]", "value": 100, "unit": "%"}, {"measurement": "residual activity", "setting": "[8]", "value": 97, "unit": "%"}, {"measurement": "residual activity", "setting": "[9]", "value": 94, "unit": "%"}, {"measurement": "residual activity", "setting": "[10]", "value": 94, "unit": "%"}, {"measurement": "residual activity", "setting": "[11]", "value": 100, "unit": "%"}, {"measurement": "residual activity", "setting": "[12]", "value": 100, "unit": "%"}, {"measurement": "residual activity", "setting": "[13]", "value": 100, "unit": "%"}, {"measurement": "residual activity", "setting": "[14]", "value": 81, "unit": "%"}, {"measurement": "residual activity", "setting": "[15]", "value": 87, "unit": "%"}, {"measurement": "residual activity", "setting": "[16]", "value": 100, "unit": "%"}, {"measurement": "residual activity", "setting": "[17]", "value": 100, "unit": "%"}, {"measurement": "residual activity", "setting": "[18]", "value": 92, "unit": "%"}, {"measurement": "residual activity", "setting": "[19]", "value": 87, "unit": "%"}, {"measurement": "residual activity", "setting": "[20]", "value": 100, "unit": "%"}, {"measurement": "residual activity", "setting": "[21]", "value": 82, "unit": "%"}, {"measurement": "residual activity", "setting": "[22]", "value": 100, "unit": "%"}, {"measurement": "residual activity", "setting": "[23]", "value": 94, "unit": "%"}, {"measurement": "residual activity", "setting": "[24]", "value": 88, "unit": "%"}, {"measurement": "residual activity", "setting": "[25]", "value": 93, "unit": "%"}, {"measurement": "residual activity", "setting": "[26]", "value": 89, "unit": "%"}, {"measurement": "residual activity", "setting": "[27]", "value": 100, "unit": "%"}, {"measurement": "residual activity", "setting": "[28]", "value": 100, "unit": "%"}, {"measurement": "residual activity", "setting": "[29]", "value": 61, "unit": "%"}, {"measurement": "residual activity", "setting": "[30]", "value": 100, "unit": "%"}, {"measurement": "residual activity", "setting": "[31]", "value": 44, "unit": "%"}, {"measurement": "residual activity", "setting": "[32]", "value": 100, "unit": "%"}, {"measurement": "residual activity", "setting": "[33]", "value": 100, "unit": "%"}, {"measurement": "residual activity", "setting": "[34]", "value": 100, "unit": "%"}, {"measurement": "residual activity", "setting": "[35]", "value": 100, "unit": "%"}, {"measurement": "residual activity", "setting": "[36]", "value": 81, "unit": "%"}, {"measurement": "residual activity", "setting": "[37]", "value": 100, "unit": "%"}, {"measurement": "residual activity", "setting": "[38]", "value": 91, "unit": "%"}, {"measurement": "residual activity", "setting": "[39]", "value": 100, "unit": "%"}, {"measurement": "residual activity", "setting": "[40]", "value": 100, "unit": "%"}, {"measurement": "residual activity", "setting": "[41]", "value": 94, "unit": "%"}, {"measurement": "residual activity", "setting": "[42]", "value": 59, "unit": "%"}, {"measurement": "residual activity", "setting": "[43]", "value": 100, "unit": "%"}, {"measurement": "residual activity", "setting": "[44]", "value": 100, "unit": "%"}, {"measurement": "residual activity", "setting": "[45]", "value": 100, "unit": "%"}]}
{"smiles": "CS(=O)(=O)N1CCCC(NC(=O)[C@H](CCC2CCCCC2)NC(=O)c2ccc(CNC(=O)c3cnc4ccccn34)cc2)C1", "note": "(stereo not given in full) [SR-302]", "values": [{"measurement": "residual activity", "setting": "[1]", "value": 100, "unit": "%"}, {"measurement": "residual activity", "setting": "[2]", "value": 100, "unit": "%"}, {"measurement": "residual activity", "setting": "[3]", "value": 92, "unit": "%"}, {"measurement": "residual activity", "setting": "[4]", "value": 97, "unit": "%"}, {"measurement": "residual activity", "setting": "[5]", "value": 85, "unit": "%"}, {"measurement": "residual activity", "setting": "[6]", "value": 89, "unit": "%"}, {"measurement": "residual activity", "setting": "[7]", "value": 100, "unit": "%"}, {"measurement": "residual activity", "setting": "[8]", "value": 96, "unit": "%"}, {"measurement": "residual activity", "setting": "[9]", "value": 100, "unit": "%"}, {"measurement": "residual activity", "setting": "[10]", "value": 100, "unit": "%"}, {"measurement": "residual activity", "setting": "[11]", "value": 74, "unit": "%"}, {"measurement": "residual activity", "setting": "[12]", "value": 75, "unit": "%"}, {"measurement": "residual activity", "setting": "[13]", "value": 100, "unit": "%"}, {"measurement": "residual activity", "setting": "[14]", "value": 47, "unit": "%"}, {"measurement": "residual activity", "setting": "[15]", "value": 37, "unit": "%"}, {"measurement": "residual activity", "setting": "[16]", "value": 100, "unit": "%"}, {"measurement": "residual activity", "setting": "[17]", "value": 100, "unit": "%"}, {"measurement": "residual activity", "setting": "[18]", "value": 100, "unit": "%"}, {"measurement": "residual activity", "setting": "[19]", "value": 68, "unit": "%"}, {"measurement": "residual activity", "setting": "[20]", "value": 100, "unit": "%"}, {"measurement": "residual activity", "setting": "[21]", "value": 70, "unit": "%"}, {"measurement": "residual activity", "setting": "[22]", "value": 84, "unit": "%"}, {"measurement": "residual activity", "setting": "[23]", "value": 100, "unit": "%"}, {"measurement": "residual activity", "setting": "[24]", "value": 100, "unit": "%"}, {"measurement": "residual activity", "setting": "[25]", "value": 90, "unit": "%"}, {"measurement": "residual activity", "setting": "[26]", "value": 61, "unit": "%"}, {"measurement": "residual activity", "setting": "[27]", "value": 100, "unit": "%"}, {"measurement": "residual activity", "setting": "[28]", "value": 100, "unit": "%"}, {"measurement": "residual activity", "setting": "[29]", "value": 95, "unit": "%"}, {"measurement": "residual activity", "setting": "[30]", "value": 100, "unit": "%"}, {"measurement": "residual activity", "setting": "[31]", "value": 100, "unit": "%"}, {"measurement": "residual activity", "setting": "[32]", "value": 76, "unit": "%"}, {"measurement": "residual activity", "setting": "[33]", "value": 100, "unit": "%"}, {"measurement": "residual activity", "setting": "[34]", "value": 32, "unit": "%"}, {"measurement": "residual activity", "setting": "[35]", "value": 95, "unit": "%"}, {"measurement": "residual activity", "setting": "[36]", "value": 96, "unit": "%"}, {"measurement": "residual activity", "setting": "[37]", "value": 77, "unit": "%"}, {"measurement": "residual activity", "setting": "[38]", "value": 100, "unit": "%"}, {"measurement": "residual activity", "setting": "[39]", "value": 100, "unit": "%"}, {"measurement": "residual activity", "setting": "[40]", "value": 100, "unit": "%"}, {"measurement": "residual activity", "setting": "[41]", "value": 94, "unit": "%"}, {"measurement": "residual activity", "setting": "[42]", "value": 30, "unit": "%"}, {"measurement": "residual activity", "setting": "[43]", "value": 100, "unit": "%"}, {"measurement": "residual activity", "setting": "[44]", "value": 92, "unit": "%"}, {"measurement": "residual activity", "setting": "[45]", "value": 77, "unit": "%"}]}
